Experimental data published in patent US4077981A, “Certain 1-alkyl-2-dichlorophenyliminopyrrolidines” (Bayer Aktiengesellschaft, priority 1968, dated 1978).

What was measured:
[1] = test system: Boophilus microplus, Biarra strain (resistant); test: In-vitro test for ovicidal effect on ticks (Biarra strain); conditions: ovicidal only (marked not adulticidal); for Ovicidal effect: 50% inhibition with the stated concentration of active compound: Table 4, concentration giving 50% inhibition; for Ovicidal effect: 100% inhibition with the stated concentration of active compound: Table 4, concentration giving 100% inhibition
Method: In-vitro Test for Ovicidal Effect on Ticks
The emulsion concentrate so obtained is diluted with water to the application concentration desired in each case.
After immersion of, in each case, 10 female specimens of the various strains of ticks, the individual ticks are transferred to plastic dishes, the bottom of each of which is covered with a disc of filter paper.

Boophilus, Biarra strain = test: In-vitro test for adulticidal effect on ticks (24 hours); parameters: species or system Boophilus microplus; conditions: Table 4, after 24 hours, at the concentrations stated
Method: In addition, the adulticidal effectiveness of the preparation of the given active compound after 24 hours is determined by ascertaining the voluntary movement of limbs and bodies of the immersed adult ticks after stimulation with a fine needle compared with the voluntary movement of limbs and bodies of the untreated adult ticks. The effectiveness is stated in %, 100% meaning that no movements of any kind of the limbs and bodies were any longer detectable, and 0% signifying that the ticks moved limbs and bodies in normal manner.

SMILES	Ovicidal effect: 50% inhibition with the stated concentration of active compound [1] [% by weight]	Ovicidal effect: 100% inhibition with the stated concentration of active compound [1] [% by weight]	Adulticidal effect (Boophilus, Biarra strain)
CC=CCN1CCCC1=Nc1ccc(Br)cc1CC	0.05	0.1	not adulticidal
C=CCN1CCCC1=Nc1ccc(F)cc1Cl	0.03	0.1	not adulticidal
CC=CCN1CCCC1=Nc1ccc(Cl)cc1Cl	0.03	0.01	not adulticidal
C=CCN1CCCC1=Nc1cc(Cl)ccc1Cl	0.03	0.1	not adulticidal
